Assays:
[1] = system: normal cell line (HEK293); assay: MTT cytotoxicity, normal cell line HEK293; type: cell-based, human; conditions: Homo sapiens, HEK293; 10 μM; read-out: Inhibition rate, HEK293
[2] = MTT cytotoxicity, normal cell line HEK293; type: cell-based, human; conditions: human, HEK293 cells (normal cell line); MTT assay, 48 h; normal cell line; CC50; read-out: In vitro cytotoxicity IC50, HEK293
[3] = system: human prostate cancer cells (PC-3); assay: MTT antiproliferative assay, PC-3; type: cell-based; conditions: Homo sapiens; for IC50: 48 h, MTT assay, read-out: In vitro cytotoxicity IC50, PC-3; for inhibition at 10 µM: read-out: Inhibition rate, PC-3
Description: (§1) A549, PC-3, HepG2 and K562 cells were purchased from the Kunming cell bank of the Chinese academy of sciences. All cell lines were cultured in DMEM or RPMI 1640 complete medium. Logarithmic growth cells were cultured in 96-well plates at a concentration of 10^4 cells per well and pre-cultured for 24 h before adding test compounds. The MTT test with 5-Fluorouracil and Gefitinib as reference compounds were used to evaluate antiproliferative activity of target compounds in four human cancer line cells. For the estimation of the inhibition concentration (IC50), the Graph Pad Prism (GraphPad Software, San Diego, CA) was used.

[4] = system: human chronic myeloid leukaemia cells (K562); assay: MTT antiproliferative assay, K562; type: cell-based; conditions: for inhibition at 10 µM: K562, 10 μM, read-out: Inhibition rate, K562; for IC50: K562, 48 h, MTT assay, 48 h, read-out: In vitro cytotoxicity IC50, K562
Description: as §1

[5] = system: human liver cancer cells (HepG2); assay: MTT antiproliferative assay, HepG2; type: cell-based; conditions: for inhibition at 10 µM: read-out: Inhibition rate, HepG2; for IC50: MTT assay, 48 h, read-out: In vitro cytotoxicity IC50, HepG2
Description: as §1

[6] = system: human non-small cell lung cancer cells (A549); assay: MTT antiproliferative assay, A549; type: cell-based; conditions: for inhibition at 10 µM: A549, 10 μM, read-out: Inhibition rate, A549; for IC50: A549, 48 h, MTT assay, 48 h, read-out: In vitro cytotoxicity IC50, A549
Description: as §1

Structure (SMILES) | inhibition at 10 µM [1] | IC50 at 48 h [2] | IC50 [3] | inhibition at 10 µM [3] | melting point | inhibition at 10 µM [4] | IC50 [4] | inhibition at 10 µM [5] | IC50 [5] | inhibition at 10 µM [6] | IC50 [6]
Nn1c(SCC(=O)Nc2cc(-c3c[nH]c4ccccc34)n[nH]2)nnc1-c1ccc(Cl)cc1 [Compound 11f, N-(3-(1H-indol-3-yl)-1H-pyrazol-5-yl)-2-((4-amino-5–(4-chlorophenyl)-4H-1,2,4-triazol-3-yl)thio)acetamide] | 40.1 ± 2.19% | 18.1 ± 3.14 µM | 19.1 ± 8.43 µM | 28.9 ± 3.01% | 214 to 215 °C | 25 ± 3.24% | 32.3 ± 4.05 µM | 46.9 ± 6.62% | 9.04 ± 0.93 µM | 32.8 ± 4.22% | 11.8 ± 3 µM
COc1ccc(-c2nnc(SCC(=O)Nc3cc(-c4c[nH]c5ccccc45)n[nH]3)n2N)cc1 [Compound 11e, N-(3-(1H-indol-3-yl)-1H-pyrazol-5-yl)-2-((4-amino-5–(4-methoxyphenyl)-4H-1,2,4-triazol-3-yl)thio)acetamide] | 67.3 ± 1.39% | 4.94 ± 0.75 µM | 11.7 ± 1.64 µM | 54.7 ± 14.8% | 238 to 240 °C | 98.7 ± 0.418% | 4.32 ± 0.53 µM | 63.5 ± 20% | 10.4 ± 2.86 µM | 47.9 ± 9.44% | 21.4 ± 4.46 µM
Nn1c(SCC(=O)Nc2cc(-c3c[nH]c4ccccc34)n[nH]2)nnc1-c1c[nH]c2ccccc12 [Compound 11n, N-(3-(1H-indol-3-yl)-1H-pyrazol-5-yl)-2-((4-amino-5-(1H-indol-3-yl)-4H-1,2,4-triazol-3-yl)thio)acetamide] | 44.7 ± 4.73% | 5.02 ± 1.29 µM | 10.4 ± 0.46 µM | 56.6 ± 12.9% | 230 to 232 °C | 97.1 ± 0.377% | 4.38 ± 0.45 µM | 80.5 ± 3.62% | 2.76 ± 1.74 µM | 31 ± 0.996% | 31.3 ± 3.29 µM
Nn1c(SCC(=O)Nc2cc(-c3c[nH]c4ccccc34)n[nH]2)nnc1-c1cc(Cl)cc(Cl)c1 [Compound 11a, N-(3-(1H-indol-3-yl)-1H-pyrazol-5-yl)-2-((4-amino-5–(3,5-dichlorophenyl)-4H-1,2,4-triazol-3-yl)thio)acetamide] | 58.5 ± 2.72% | 16.8 ± 5.56 µM | 7.66 ± 1.5 µM | 79 ± 3.97% | 258 to 260 °C | 95.6 ± 1.68% | 3.64 ± 0.08 µM | 19.3 ± 4.13% | 40.3 ± 7.83 µM | 32.9 ± 3.84% | 27.3 ± 3.47 µM
O=C(CSc1nnc(-c2ccccn2)s1)Nc1cc(-c2c[nH]c3ccccc23)n[nH]1 [Compound 10i, N-(3-(1H-indol-3-yl)-1H-pyrazol-5-yl)-2-((5-(pyridine-2-yl)-1,3,4-thiadiazol-2-yl)thio)acetamide] | 46.5 ± 7.5% | 26.3 ± 1.63 µM | 24.1 ± 5.07 µM | 30.5 ± 9.1% | 226 to 228 °C | 40.5 ± 6.54% | 12.5 ± 2.46 µM | 51.9 ± 5.57% | 8.37 ± 2.29 µM | 35.7 ± 2.75% | 12 ± 1.46 µM
O=C(CSc1nnc(Cc2ccc(Cl)cc2)s1)Nc1cc(-c2c[nH]c3ccccc23)n[nH]1 [Compound 10d, N-(3-(1H-indol-3-yl)-1H-pyrazol-5-yl)-2-((5-(4-chlorobenzyl)-1,3,4-thiadiazol-2-yl)thio)acetamide] | 84.7 ± 2.75% | 0.74 ± 1.25 µM | 1.6 ± 0.44 µM | 82.6 ± 4.95% | 151 to 153 °C | 96.1 ± 1.29% | 0.184 ± 0.02 µM | 93.7 ± 1.88% | 0.732 ± 0.15 µM | 90.7 ± 6.19% | 1.28 ± 0.33 µM
Nn1c(SCC(=O)Nc2cc(-c3c[nH]c4ccccc34)n[nH]2)nnc1-c1ccccn1 [Compound 11i, N-(3-(1H-indol-3-yl)-1H-pyrazol-5-yl)-2-((4-amino-5-(pyridine-2-yl)-4H-1,2,4-triazol-3-yl)thio)acetamide] | 67.1 ± 2.18% | 1.45 ± 0.22 µM | 2.77 ± 0.91 µM | 83.6 ± 5.66% | 208 to 210 °C | 99.5 ± 0.155% | 1.26 ± 0.24 µM | 95.3 ± 3.04% | 2.5 ± 1.44 µM | 94.8 ± 1.91% | 2.97 ± 0.83 µM
COc1cc(-c2nnc(SCC(=O)Nc3cc(-c4c[nH]c5ccccc45)n[nH]3)n2N)cc(OC)c1OC [Compound 11b, N-(3-(1H-indol-3-yl)-1H-pyrazol-5-yl)-2-((4-amino-5–(3,4,5-trimethoxyphenyl)-4H-1,2,4-triazol-3-yl)thio)acetamide] | 72.1 ± 1.62% | 20.2 ± 4.08 µM | 5.73 ± 1.69 µM | 80.3 ± 3.56% | 259 to 261 °C | 96.4 ± 1.16% | 3.09 ± 0.41 µM | 72.7 ± 4.94% | 10.6 ± 1.42 µM | 32.6 ± 3.42% | 29.8 ± 4.05 µM
